Results reported in patent US20260256712A1, “COMPOUNDS FOR INHIBITING GRAM-POSITIVE BACTERIA” (priority 2022, published 2026).
“Also recorded” adds a separate entry of the source.

Key:
[1] = tested on: B. subtilis 1S-75; assay: Zone inhibition assay (ZIA), B. subtilis; type: cell-based, Bacillus subtilis
[2] = tested on: E. coli DH5α; assay: Zone inhibition assay (ZIA), E. coli
[3] = tested on: Gram-negative bacteria; assay: Drug susceptibility assay (MIC), Gram-negative bacteria; type: cell-based
[4] = tested on: Staphylococcus aureus strains including MRSA; assay: Drug susceptibility assay (MIC), Staphylococcus aureus; type: cell-based; details: including the MRSA strain
Description: Drug susceptibility assays. Experiments to determine the minimum inhibitory concentration (MIC) of RR-THC for bacterial growth were performed in 96-well microtiter plates. A DMSO stock solution of each compound was added to the first column and serially diluted across the columns of the plate. The last column of the plate contained no drug and served as a no-drug control. Overnight cultures of the bacterium being tested (MRSA ATCC 43300, […], or the aforementioned VRSA/VISA strains) were diluted 1000-fold, and 100 μL of the diluted culture (appr. 2×10^3 cells) was used as an inoculum in each well. MICs were determined by visual inspection looking for a pellet after 18 h incubation at 37° C. and centrifugation.

[5] = Intraperitoneal administration in mice; type: in vivo; details: 10 mg/ml
[6] = Cytotoxicity assay (CellTiter 96 AQueous One Solution); type: cell-based; details: African green monkey, Vero cells, read-out: Cytotoxicity CC 50
Description: Cytotoxicity assay. Compounds were tested for cytotoxicity against mammalian Vero cells using the CellTiter 96 AQueous One Solution Assay kit (Promega). Vero cells were seeded in 96-well plates at a density of 2×10^4 cells per well, and the plates were incubated for 4 h at 37° C. to allow attachments of the Vero cells. Chemical compounds being tested were then added to the wells starting from a final concentration of 50 μg/mL and making 12 1:2 dilutions. Cells were incubated for 72 h at 37° C., after which 20 μL of freshly prepared MTS:PMS reagents was added to each well. The plates were incubated for 2 h and then read at an absorbance of 490 nm.

[7] = tested on: ternary complex between Cy5-EF-Tu:GTP and Cy3-Phe-tRNAPhe; assay: EF-Tu:tRNA FRET assay (qHTS and secondary FRET assay); type: biochemical, E. coli; details: online and offline LOPAC testing
Source text: Upon formation of functional ternary complex between Cy5-EF-Tu:GTP and Cy3-Phe-tRNAPhe, fluorescence energy transfer (FRET) occurs between Cy3 and Cy5 fluorophores located within Förster radius (~17 Å) when Cy3 is excited at 532 nm, and as a result the complex emits light at 665 nm. Presence of inhibitors of the ternary complex prevents complex from forming, thereby reducing fluorescence intensity at 665 nm.
Inhibitors of EF-Tu:tRNA translation were identified using this in vitro FRET system. Quantitative high throughput screening (qHTS) was performed on the LOPAC library containing 1,280 chemicals to identify potential leads for antibiotic development. […]
Equipment: EnVision 2104 Multilabel Plate Reader (PerkinElmer) with excitation optical filter 2100-5050 Bodipy TMR FR 531 nm and emission optical filter 2100-5770 Cy5 685 nm. […]
All solutions were prepared fresh in assay buffer consisting of 70 mM HEPES-KOH (pH7.6), 52 mM ammonium acetate, 8 mM magnesium chloride, 30 mM potassium chloride, and 2.6% glycerol. […] FRET was then detected using 1) a ViewLux high-throughput microplate imager (PerkinElmer) equipped with Ex: 525/20 and Em: 671/8 filters; or 2) an Envision Multimode plate reader (PerkinElmer) equipped with Ex: 530/25 and Em: 665 filters. Assay performance, as calculated by Z′ factor as described by Zhang et al (J Biomol Screen, 1999), was favorable for the Envision plate reader. […]

[8] = tested on: mycobacteria; assay: Drug susceptibility assay (MIC), mycobacteria; type: cell-based
[9] = tested on: Pseudomonas aeruginosa; assay: Bacterial growth assay, Pseudomonas aeruginosa; type: cell-based
Description: (§1) The culture was diluted again 1/500 in 1 ml of fresh media with presence of increasing concentrations of tested compound or 1% DMSO as a control.

[10] = tested on: E. coli strains; assay: Bacterial growth assay, E. coli; type: cell-based, Escherichia coli
Description: as §1

[11] = tested on: B. subtilis IS-75; assay: Bacterial growth / viable count assay, B. subtilis; type: cell-based, Bacillus subtilis
Description: as §1

[12] = tested on: USA300 methicillin-resistant Staphylococcus aureus (MRSA); type: in vivo, C57Bl/6J mice; details: for bacterial counts (punch biopsies) / dermonecrosis: topical ointment daily, 0.2 mg drug; for dermonecrosis: first experiment
[13] = tested on: Cy3/Cy5-labelled oligonucleotides; assay: Counterscreen assay excluding quenching (Cy3/Cy5 oligonucleotide FRET); details: 50 nM of each oligonucleotide
Description: Oligonucleotides were purchased from Integrated DNA Technologies:
In the assay, a 50 nM final concentration of each oligonucleotide was used.
Incubation buffer: 70 mM HEPES-KOH (pH 7.6), 52 mM ammonium acetate, 8 mM magnesium chloride, 30 mM potassium chloride and 2.6% glycerol. A 96-well black, clear bottom microplate was used and read the plate was read using EnVision multilabel plate reader (PerkinElmer) having the same optical filters and parameters as described in Example 2.

What does the source list for `CC[C@@H]1Cc2cc(O)ccc2C2=C1c1ccc(O)cc1C[C@H]2CC` [RR-THC, (R,R)-tetrahydrochrysene]?
zone inhibition result in words, gram-positive bacteria (B. subtilis) [1]: clear zone indicative of inhibition of cell growth; zone inhibition result in words, E. coli [2]: did not inhibit; sensitivity in MIC assay, Gram-negative bacteria [3]: not sensitive; sensitivity in MIC assay, three Staphylococcus aureus strains [4]: highly sensitive; toxicity upon intraperitoneal administration [5]: a level of toxicity observed; CC50 at 72 h [6]: > 50 µM; effect on Cy5-EF-Tu acceptor fluorescence emission in the FRET assay [7]: significantly diminished; also recorded: effectively decreased Cy5-EF-Tu acceptor fluorescence emission; also recorded: highly active in both methods; sensitivity in MIC assay, mycobacteria [8]: not sensitive; inhibition of bacterial growth, Pseudomonas aeruginosa [9]: No inhibition; inhibition of bacterial growth, E. coli strains [10]: No inhibition; colony formation of B. subtilis on agar plate ([11]; 10 μM added to the medium in an agar plate): colonies did not form; inhibition at 5 µM ([11]; Bacillus subtilis, IS75, 5 μM, cells grown in test tubes): ~97%; dermonecrosis, repetition of the experiment ([12]; compared to controls but not compared to the mupirocin treated group): statistically significant decrease in dermonecrosis; bacterial counts (punch biopsies) [12]: no difference apparent; dermonecrosis [12]: inhibiting dermonecrosis; also recorded: trend to reduced dermonecrosis; change of FRET in quenching counterscreen [13]: did not significantly change FRET

Which results are given for `C/C(=C\C(=O)OCCCCCCCCC(=O)O)C[C@@H]1OC[C@H](C[C@@H]2O[C@H]2[C@@H](C)[C@H](C)O)[C@@H](O)[C@H]1O` [mupirocin, reference compound]?
bacterial counts (punch biopsies) [12]: trend to reduction; dermonecrosis [12]: no decrease
